{"source": "patent US12527776B2", "about": "“Treatment of ciliopathies using inhibitors of glucosylceramide synthase (GCS)” (GENZYME CORPORATION, priority 2019, dated 2026)", "key": {"[1]": {"tested_on": "Bbs2−/− immortalized kidney epithelial cells", "assay": "Cell culture and primary cilium staining (cilia length, GSL localization)", "assay_type": "cell-based, mouse", "settings": "serum free, compound for 6-24 hours", "procedure": "Cell Culture and Primary Cilium Staining\nWild type and Bbs2^−/− kidney epithelium cell lines were established and maintained as described previously (See Natoli T et al., Nat Med, 16:788-792 (2010); and Humes H D. et al., Am J Kidney Dis, 39:1078-1087(2002)). Cells were cultured on collagen I coated glass slides in DMEM containing 1% penicillin/streptomycin, 10% FBS. To determine the effect of compounds on cilia and lipid localization, cells were cultured in serum free media for 24 hours followed by the addition of Compound 1 for 6-24 hours. Cells were then fixed with 4% paraformaldehyde followed by immunofluorescence with anti-GM3 (Creative Biolabs), anti-ceramide (Sigma Aldrich), anti-GM1 (Invitrogen), and anti-acetylated tubulin (Cell Signaling) antibodies. Cilia length was quantified using Metamorph software."}, "[2]": {"tested_on": "Bbs2−/− mice adipose tissue", "assay": "RNA sequencing of adipose tissue of Bbs2−/− mice", "assay_type": "in vivo, mouse", "settings": "0.033% w/w in feed from 1 to 6 months of age", "procedure": "Total RNA was isolated from previously flash frozen adipose tissue dissected from four six-month old Wt (Wt #1-4), Bbs2^−/− (Bbs #1-4) or Bbs2^−/− treated with 0.033% w/w of Compound 1 (Bbs+Cmpd1 #1-4) in feed from 1 to 6 months of age using TRIzol (Thermo Fisher Scientific) and chloroform extractions. RNA samples were further purified with RNAeasy Mini Kit (Qiagen) to remove genomic DNA. The concentration and purity of RNA was assessed with a NanoDrop 8000 microspectrophotometer (Thermo Fisher Scientific). RNA integrity was then evaluated with a 4200 TapeStation System (Agilent Technologies).\nThe sequencing libraries were generated using the TruSeq Stranded mRNA Library Prep Kit as per the manufacturer recommendations (Illumina). Sequencing was performed using High Output NextSeq 500/550 v2.5 kits on an Illumina NextSeq 500 platform (2×75 bp paired-end reads).\nData analysis was performed with Array Studio V10.1 (Omicsoft Corporation, a Qiagen company) and mapped to Genome Reference Consortium Mouse Build 38. Heatmaps are generated using a Center Scale normalization algorithm on median normalized Log 2 expression values as per the software developer (Omicsoft)."}, "Bbs2−/− mice [3]": {"tested_on": "Bbs2−/− mice", "assay": "Liver abnormalities in Bbs2−/− mice (liver weight, ALT, triglycerides)", "assay_type": "in vivo, mouse", "settings": "feed from 1 to 6 months of age", "from_the_text": "(§1) A Bbs2^−/− mouse model has been described by Nishimura D Y et al. (Proc Natl Acad Sci, 101:16588-16593 (2004)) with exons 5-14 of Bbs2 replaced with a neomycin cassette. Mice were backcrossed into 129/SvJ background. Treated Bbs2^−/− mice were fed ad libitum with 0.033% w/w of Compound 1 incorporated in feed from the age of 1 month to 6 months. Bbs2^−/− and Wt control animals were fed regular 5053 chow (LabDiet). To establish metabolic disease, Bbs2^−/− mice were left untreated until four-months of age, and then treated with Compound 1 incorporated into feed for the fifth and sixth months.\nTriglyceride and ALT levels were measured using a VetACE™ analyzer (Alfa Wasserman, West Coldwell, NJ)."}, "Bbs2−/− mice [4]": {"tested_on": "Bbs2−/− mice", "assay": "Retinal degeneration in Bbs2−/− mice (OCT, immunofluorescence)", "assay_type": "in vivo, mouse", "settings": "treatment for 5 months from one month of age", "from_the_text": "as §1\nA non-invasive imaging technique, optical coherence tomography (OCT) using the Bioptigen Envisu R2200 instrument, was used to generate a cross-sectional image of the retina with 2 micron resolution to measure the thickness of the retinal cell layers in vivo.\nParaffin-embedded samples of eyes from Wt and Bbs2^−/− mice were prepared and analysed as described supra. The primary antibodies used were rhodopsin (Thermo Scientific) and cone arrestin (EMD Millipore)."}, "Bbs2−/− mice [5]": {"tested_on": "Bbs2−/− mice", "assay": "Olfaction (buried treat test) and main olfactory epithelium immunofluorescence in Bbs2−/− mice", "assay_type": "in vivo, mouse", "settings": "feed from 1 to 6 months of age", "from_the_text": "as §1\nAnimal olfaction was tested using a protocol adapted from Yang M. et al. (Curr Protoc Neurosci, DOI:10.1002/0471142301.ns0824s48 (2009)). Before testing, animals were acclimatised for three days and then fasted for 18 hours in cage with Alpha Dri bedding. Treat (Bioserv Supreme Mini-Treats, Chocolate flavor) was buried 1 cm deep in a clean cage with 3 cm deep bedding. Animals were placed in cage and time was recorded when treat was found and bitten into.\nParaffin-embedded samples of nasal cavities from Wt and Bbs2^−/− mice were prepared and analysed as described supra. The primary antibodies used were acetylated tubulin (Cell Signaling Technology), cytokeratin 14 (Protein Tech), SRY-Box 2 (Cell Signaling Technology), doublecortin (Cell Signaling Technology), and olfactory marker protein (Wako)."}, "[6]": {"tested_on": "human preadipocytes SQ cells with BBS1, BBS2 or BBS10 knocked-down", "assay": "In vitro adipocyte differentiation assay", "assay_type": "cell-based", "settings": "1.25-10 μM, 10 days differentiation", "procedure": "In Vitro Adipocyte Differentiation Assay\nIn order to examine the effect of Compound 1 on other mutations, we developed an in vitro differentiation assay in human preadipocyte cells. The BBS genes BBS1, BBS2, or BBS10 were knocked-down in cells using siRNA. For this, human preadipocytes SQ cells (Lonza) were plated in PGM-2 Preadipocyte Growth Medium-2 BulletKit, (Lonza) at 30,000 cells/cm^2 density and grown at 37° C. overnight. On the next day, cells were transfected with BBS1, BBS2 or BBS10 specific siRNA in OptiMem (Invitrogen) in the presence of Lipofectamine 2000 (Invitrogen) and differentiated in RDM-2 medium (Lonza) for 10 days with or without Compound 1 at concentrations of […], 5.0 and 10 μM (stock of Compound 1 was prepared in 100% ethanol and diluted with RDM-2 medium to final concentrations before adding to cells). A mixture of nonspecific siRNA (scrambled) was used as a negative control. Media was harvested for leptin analysis with Quantikine ELISA kit (RnD Systems, Inc.) at days 0, 5, 7 and 10 of adipocytes differentiation. Photomicroscopy (Axiovert 25, Zeiss with LASv4.2, Leica) was used to quantify lipid accumulation, which is evident by the size and quantity of lipid vacuoles in the cells."}}, "data": [{"smiles": "CC(C)(NC(=O)OC1CN2CCC1CC2)c1cccc(-c2ccc(F)cc2)c1", "note": "(centres unmarked) [Compound 1, 1-azabicyclo[2.2.2]oct-3-yl [2-(4′-fluorobiphenyl-3-yl)propan-2-yl]carbamate]", "values": [{"measurement": "GM3 localization", "setting": "[1]", "value": "restores GM3 localization similar to what is observed in Wt cells"}, {"measurement": "cilia length", "setting": "[1]", "value": "elongates cilia"}, {"measurement": "expression of genes in adipogenesis, ciliogenesis and sphingolipid homeostasis pathways", "setting": "[2]", "value": "normalizes the expression of genes"}, {"measurement": "liver weight", "setting": "Bbs2−/− mice [3]", "value": "normalized"}, {"measurement": "serum ALT", "setting": "Bbs2−/− mice [3]", "value": "normalized"}, {"measurement": "serum triglycerides", "setting": "Bbs2−/− mice [3]", "value": "normalized"}, {"measurement": "increase in the thickness of the ONL", "setting": "Bbs2−/− mice [4]", "value": "~2", "unit": "fold"}, {"measurement": "rod-cone specific staining (rhodopsin, cone arrestin)", "setting": "Bbs2−/− mice [4]", "value": "partial restoration/preservation of rod-cone specific staining"}, {"measurement": "adenylate cyclase III (ACIII) in the MOE", "setting": "Bbs2−/− mice [5]", "value": "increase in ACIII"}, {"measurement": "cilia in the MOE (acetylated tubulin)", "setting": "Bbs2−/− mice [5]", "value": "preservation/restoration of the cilia in the MOE"}, {"measurement": "differentiation in MOE (immature vs mature neurons)", "setting": "Bbs2−/− mice [5]", "value": "correction of this phenotype to resemble that of wild type animals"}, {"measurement": "olfaction defect (time to find a buried treat)", "setting": "Bbs2−/− mice [5]", "value": "restored"}, {"measurement": "leptin secretion", "setting": "[6]", "value": "reduction"}, {"measurement": "lipid accumulation", "setting": "[6]", "value": "reduction of lipid accumulation"}]}]}
